For twelve compounds, IC50 results are on record in patent publication US9199984B2, “Inhibition of enzymes” (CHIESI FARMACEUTICI S.p.A., priority 2012, dated 2015).

Counter-ions that a name gives are not always drawn.

The target in this experiment is T1, human neutrophil elastase (HNE) (Homo sapiens, UniProt P08246).
T1 construct: purchased Sigma E8140
T1 sequence (P08246 30-247 limits assumed): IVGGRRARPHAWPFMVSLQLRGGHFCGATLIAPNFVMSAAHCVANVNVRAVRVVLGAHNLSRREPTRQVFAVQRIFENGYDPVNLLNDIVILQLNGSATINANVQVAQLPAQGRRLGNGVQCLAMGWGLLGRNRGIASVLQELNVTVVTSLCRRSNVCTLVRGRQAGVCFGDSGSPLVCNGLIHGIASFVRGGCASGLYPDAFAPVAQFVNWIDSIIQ
Kind of experiment: HNE enzyme activity assay. Format: biochemical. As to conditions: human leukocyte elastase, substrate MeOSuc-Ala-Ala-Pro-Val-AMC 100 μM, 25° C. for 30 minutes, fluorescence; read-out: HNE inhibition. The protocol: Compounds of the present invention were tested for potency in a human neutrophil elastase (HNE) enzyme activity assay.
Assays were performed in 96-well plates in a total assay volume of 100 μl. The final concentration of elastase enzyme (human leukocyte elastase, Sigma E8140) was 0.0036 units/well […]. The peptide substrate (MeOSuc-Ala-Ala-Pro-Val-AMC, Calbiochem #324740) was used at a final concentration of 100 μM. The final concentration of DMSO was 1% in the assay buffer (0.05M Tris.HCl, 0.1M NaCl, 0.1M CaCl2, 0.0005% brij-35, pH 7.5). The enzymatic reaction was started by addition of the enzyme and incubated at 25° C. for 30 minutes. After incubation, the reaction was stopped by addition of soybean trypsin inhibitor (Sigma T9003) at a final concentration of 50 μg/well. Fluorescence was measured using a Molecular Devices fluorescence plate reader using 380 nm excitation and 460 nm emission wavelengths.
A dose response to each compound was performed and the effect of compound in each experiment was expressed as a percentage inhibition of the control enzyme fluorescence. Dose response curves were plotted and compound potency (IC50) was determined. Compounds were tested in at least two separate experiments.
`Cc1c(-c2ccnn2-c2ccc(C#N)cc2)cn2nc(NCC(C)O)nc2c1-c1cccc(C(F)(F)F)c1` (stereo not drawn) [Example 49, 4-{5-[2-(2-Hydroxy-propylamino)-7-methyl-8-(3-trifluoromethyl-phenyl)-[1,2,4]triazolo[1,5-a]pyridin-6-yl]-pyrazol-1-yl}-benzonitrile]: the IC50 was less than 20 nM.

In the case of `Cc1c(-c2ccnn2-c2ccc(C#N)cc2)cn2nc(NC(=O)NC3CCNCC3)nc2c1-c1cccc(C(F)(F)F)c1` [Example 50, 1-[6-[2-(4-Cyano-phenyl)-2H-pyrazol-3-yl]-7-methyl-8-(3-trifluoromethyl-phenyl)-[1,2,4]triazolo[1,5-a]pyridin-2-yl]-3-piperidin-4-yl-urea], the IC50 is less than 20 nM.

For the compound `Cc1c(-c2ccnn2-c2ccc(C#N)cc2)cn2nc(NC(=O)NC3CCN(C)CC3)nc2c1-c1cccc(C(F)(F)F)c1` [Example 51, (1-Methyl-4-piperidyl)[6-[2-(4-cyano-phenyl)-2H-pyrazol-3-yl]-7-methyl-8-(3-trifluoromethyl-phenyl)-[1,2,4]triazolo[1,5-a]pyridin-2-yl]-urea], the IC50 was less than 20 nM. `CCNC(=O)Nc1nc2c(-c3cccc(C(F)(F)F)c3)c(C)c(-c3ccnn3-c3ccc(C#N)cc3)cn2n1` [Example 52, 1-[6-[2-(4-Cyano-phenyl)-2H-pyrazol-3-yl]-7-methyl-8-(3-trifluoromethyl-phenyl)-[1,2,4]triazolo[1,5-a]pyridin-2-yl]-3-ethyl-urea]: the IC50 was less than 20 nM.

As for `Cc1c(-c2ccnn2-c2ccc(C#N)cc2)cn2nc(NCCCO)nc2c1-c1cccc(C(F)(F)F)c1` [Example 53, 4-{5-[2-(3-Hydroxy-propylamino)-7-methyl-8-(3-trifluoromethyl-phenyl)-[1,2,4]triazolo[1,5-a]pyridin-6-yl]-pyrazol-1-yl}-benzonitrile], the IC50 is less than 20 nM.

Turning to `Cc1c(-c2ccnn2-c2ccc(C#N)cc2)cn2nc(NCCCCO)nc2c1-c1cccc(C(F)(F)F)c1` [Example 54, 4-{5-[2-(4-Hydroxy-butylamino)-7-methyl-8-(3-trifluoromethyl-phenyl)-[1,2,4]triazolo[1,5-a]pyridin-6-yl]-pyrazol-1-yl}-benzonitrile], the IC50 was less than 20 nM.

As for `Cc1c(-c2ccnn2-c2ccc(C#N)cc2)cn2nc(NC(=O)CCC(=O)O)nc2c1-c1cccc(C(F)(F)F)c1` [Example 55, N-[6-[2-(4-Cyano-phenyl)-2H-pyrazol-3-yl]-7-methyl-8-(3-trifluoromethyl-phenyl)-[1,2,4]triazolo[1,5-a]pyridin-2-yl]-succinamic acid], the IC50 is less than 20 nM.

Regarding `CNCCCC(=O)Nc1nc2c(-c3cccc(C(F)(F)F)c3)c(C)c(-c3ccnn3-c3ccc(C#N)cc3)cn2n1` [Example 56, N-[6-[2-(4-Cyano-phenyl)-2H-pyrazol-3-yl]-7-methyl-8-(3-trifluoromethyl-phenyl)-[1,2,4]triazolo[1,5-a]pyridin-2-yl]-4-methylamino-butyramide], the IC50 was less than 20 nM. Turning to `CC(=O)N1CCC(NC(=O)Nc2nc3c(-c4cccc(C(F)(F)F)c4)c(C)c(-c4ccnn4-c4ccc(C#N)cc4)cn3n2)CC1` [Example 57, 1-(1-Acetyl-piperidin-4-yl)-3-[6-[2-(4-cyano-phenyl)-2H-pyrazol-3-yl]-7-methyl-8-(3-trifluoromethyl-phenyl)-[1,2,4]triazolo[1,5-a]pyridin-2-yl]-urea], the IC50 is less than 20 nM. The result for `Cc1c(-c2ccnn2-c2ccc(C#N)cc2)cn2nc(NC(=O)NC3CCN(S(C)(=O)=O)CC3)nc2c1-c1cccc(C(F)(F)F)c1` [Example 58, 1-[6-[2-(4-Cyano-phenyl)-2H-pyrazol-3-yl]-7-methyl-8-(3-trifluoromethyl-phenyl)-[1,2,4]triazolo[1,5-a]pyridin-2-yl]-3-(1-methanesulfonyl-piperidin-4-yl)-urea] reads less than 20 nM; that for `Cc1c(-c2ccnn2-c2ccc(C#N)cc2)cn2nc(NCCCC(=O)N(C)CCN(C)C)nc2c1-c1cccc(C(F)(F)F)c1` [Example 60, 4-[6-[2-(4-Cyano-phenyl)-2H-pyrazol-3-yl]-7-methyl-8-(3-trifluoromethyl-phenyl)-[1,2,4]triazolo[1,5-a]pyridin-2-ylamino]-N-(2-dimethylamino-ethyl)-N-methyl-butyramide formate salt], less than 20 nM; that for `Cc1c(-c2nc(N)nn2-c2ccc(C#N)cc2)cn2nc(N)nc2c1-c1cccc(C(F)(F)F)c1` [Example 61, 4-{3-Amino-5-[2-amino-7-methyl-8-(3-trifluoromethyl-phenyl)-[1,2,4]triazolo[1,5-a]pyridin-6-yl]-[1,2,4]triazol-1-yl}-benzonitrile], less than 20 nM.
